Read-outs that look alike come from different tables or passages of the source. Marks after values point to notes of the source that are not given here.
Assays:
Type in all cases: cell-based
[1] = tested on: D. immitis L4 larvae; assay: Dirofilaria immitis, L4 Stage (DiL4) In Vitro Assay; settings: for minimal effective concentration: Dirofilaria immitis, 72 h, read-out: DiL4 MED, Minimum Effective Dose, D. immitis L4 larvae motility, in vitro; for DiMf/DiL4: larval stage selectivity, ratio of DiMf MED to DiL4 MED
[2] = tested on: third stage larvae of Haemonchus contortus; assay: Haemonchus contortus, Larvae Stage 3 (HcL3) In Vitro Assay; settings: for minimal effective concentration: Haemonchus contortus, 96 h; for HcL3 MED (symbol after Ex#): approximately 96 hours incubation
[3] = tested on: microfilariae of Dirofilaria immitis; assay: Dirofilaria immitis, Microfilaria (DiMf) In Vitro Assay; settings: Dirofilaria immitis, 72 h, read-out: DiMf MED, Minimum Effective Dose, D. immitis microfilariae motility, in vitro
[4] = read-out: HcL3 MED, Minimum Effective Dose, H. contortus third stage larvae, approximately 96 hours
[5] = multiple-resistant field isolate

COc1cccc(Cc2ccc(C[C@H]3OC(=O)[C@H](CC(C)C)N(C)C(=O)[C@@H](C)OC(=O)[C@H](CC(C)C)N(C)C(=O)[C@@H](Cc4ccc(Cc5cccc(OC)c5)cc4)OC(=O)[C@H](CC(C)C)N(C)C(=O)[C@@H](C)OC(=O)[C@H](CC(C)C)N(C)C3=O)cc2)c1 [Example 1-5, (3S,6R,9S,12R,15S,18R,21S,24R)-3,9,15,21-tetraisobutyl-6,18-bis(4-(3-methoxybenzyl)benzyl)-4,10,12,16,22,24-hexamethyl-1,7,13,19-tetraoxa-4,10,16,22-tetraazacyclotetracosan-2,5,8,11,14,17,20,23-octaone]
minimal effective concentration [1]: 0.001 µM
DiMf/DiL4 [1]: 500
minimal effective concentration [2, 4]: > 100 µM
minimal effective concentration [3]: 0.5 µM

COc1ccccc1Cc1ccc(C[C@H]2OC(=O)[C@H](CC(C)C)N(C)C(=O)[C@@H](C)OC(=O)[C@H](CC(C)C)N(C)C(=O)[C@@H](Cc3ccc(Cc4ccccc4OC)cc3)OC(=O)[C@H](CC(C)C)N(C)C(=O)[C@@H](C)OC(=O)[C@H](CC(C)C)N(C)C2=O)cc1 [Example 1-11, (3S,6R,9S,12R,15S,18R,21S,24R)-3,9,15,21-tetraisobutyl-6,18-bis(4-(2-methoxybenzyl)benzyl)-4,10,12,16,22,24-hexamethyl-1,7,13,19-tetraoxa-4,10,16,22-tetraazacyclotetracosan-2,5,8,11,14,17,20,23-octaone]
minimal effective concentration [1]: 0.001 µM
DiMf/DiL4 [1]: 300
minimal effective concentration [2, 4]: > 10 µM
minimal effective concentration [3]: 0.3 µM

CC(C)C[C@H]1C(=O)O[C@H](Cc2ccc(C(c3ccc(F)c(F)c3)n3cccn3)cc2)C(=O)N(C)[C@@H](CC(C)C)C(=O)O[C@H](C)C(=O)N(C)[C@@H](CC(C)C)C(=O)O[C@H](Cc2ccc(C(c3ccc(F)c(F)c3)n3cccn3)cc2)C(=O)N(C)[C@@H](CC(C)C)C(=O)O[C@H](C)C(=O)N1C (stereo partly drawn) [Example 1-18, (3S,6R,9S,12R,15S,18R,21S,24R)-6,18-bis(4-((3,4-difluorophenyl)(1H-pyrazol-1-yl)methyl)benzyl)-3,9,15,21-tetraisobutyl-4,10,12,16,22,24-hexamethyl-1,7,13,19-tetraoxa-4,10,16,22-tetraazacyclotetracosan-2,5,8,11,14,17,20,23-octaone]
minimal effective concentration [1]: < 0.0001 µM
DiMf/DiL4 [1]: >30
minimal effective concentration [2, 4]: > 100 µM
minimal effective concentration [3]: 0.003 µM

Cc1cnsc1Cc1ccc(C[C@H]2OC(=O)[C@H](CC(C)C)N(C)C(=O)[C@@H](C)OC(=O)[C@H](CC(C)C)N(C)C(=O)[C@@H](Cc3ccc(Cc4sncc4C)cc3)OC(=O)[C@H](CC(C)C)N(C)C(=O)[C@@H](C)OC(=O)[C@H](CC(C)C)N(C)C2=O)cc1 [Example 3-288, (3S,6R,9S,12R,15S,18R,21S,24R)-3,9,15,21-tetraisobutyl-4,6,10,16,18,22-hexamethyl-12,24-bis(4-((4-methylisothiazol-5-yl)methyl)benzyl)-1,7,13,19-tetraoxa-4,10,16,22-tetraazacyclotetracosan-2,5,8,11,14,17,20,23-octaone]
DiL4 MED ([1]; Minimum Effective Dose, D. immitis L4 larvae motility, in vitro, listed as (3-288)): 0.1 nM
DiMf/DiL4 ([1]; listed as (3-288)): 30
minimal effective concentration ([2]; read-out: HcL3 MED, Haemonchus contortus third stage larvae in vitro, class mark appended to the Ex # in Table 3): < 1 µM
minimal effective concentration ([2]; read-out: HcL3 MED, approximately 96 hours incubation, multiple-resistant field isolate): ≤ 1 µM
HcL3 MED ([2]; Minimum Effective Dose, H. contortus third stage larvae, approximately 96 hours, listed as (3-288)): 0.2 µM

COc1ncc(Cl)cc1Cc1ccc(C[C@H]2OC(=O)[C@H](CC(C)C)N(C)C(=O)[C@@H](C)OC(=O)[C@H](CC(C)C)N(C)C(=O)[C@@H](Cc3ccc(Cc4cc(Cl)cnc4OC)cc3)OC(=O)[C@H](CC(C)C)N(C)C(=O)[C@@H](C)OC(=O)[C@H](CC(C)C)N(C)C2=O)cc1 [Example 3-332, (3S,6R,9S,12R,15S,18R,21S,24R)-6,18-bis(4-((5-chloro-2-methoxypyridin-3-yl)methyl)benzyl)-3,9,15,21-tetraisobutyl-4,10,12,16,22,24-hexamethyl-1,7,13,19-tetraoxa-4,10,16,22-tetraazacyclotetracosan-2,5,8,11,14,17,20,23-octaone]
minimal effective concentration [1]: 0.0005 µM
DiMf/DiL4 [1]: 548
minimal effective concentration [3]: 0.3 µM

CC(C)C[C@H]1C(=O)O[C@H](Cc2ccc(Cc3ccsn3)cc2)C(=O)N(C)[C@@H](CC(C)C)C(=O)O[C@H](C)C(=O)N(C)[C@@H](CC(C)C)C(=O)O[C@H](Cc2ccccc2)C(=O)N(C)[C@@H](CC(C)C)C(=O)O[C@H](C)C(=O)N1C [Example 4-36]
HcL3 MED (symbol after Ex#) [2, 5]: 4-36^ (Examples with a carrot (^) have HcL3 MED values>1 and ≤3.3 μM)

Cc1cc(Cc2ccc(C[C@H]3OC(=O)[C@H](CC(C)C)N(C)C(=O)[C@@H](C)OC(=O)[C@H](CC(C)C)N(C)C(=O)[C@@H](Cc4ccccc4)OC(=O)[C@H](CC(C)C)N(C)C(=O)[C@@H](C)OC(=O)[C@H](CC(C)C)N(C)C3=O)cc2)n(C)n1 [Example 4-42]
HcL3 MED (symbol after Ex#) [2, 5]: 4-42^ (Examples with a carrot (^) have HcL3 MED values>1 and ≤3.3 μM)

CC(C)C[C@H]1C(=O)O[C@H](Cc2ccc(Cc3cocn3)cc2)C(=O)N(C)[C@@H](CC(C)C)C(=O)O[C@H](C)C(=O)N(C)[C@@H](CC(C)C)C(=O)O[C@H](Cc2ccccc2)C(=O)N(C)[C@@H](CC(C)C)C(=O)O[C@H](C)C(=O)N1C [Example 4-52]
HcL3 MED (symbol after Ex#) [2, 5]: 4-52* (Examples with an asterisk (*) have HcL3 MED values≤1 μM)

Cc1scnc1C(O)c1ccc(C[C@H]2OC(=O)[C@H](CC(C)C)N(C)C(=O)[C@@H](C)OC(=O)[C@H](CC(C)C)N(C)C(=O)[C@@H](Cc3ccccc3)OC(=O)[C@H](CC(C)C)N(C)C(=O)[C@@H](C)OC(=O)[C@H](CC(C)C)N(C)C2=O)cc1 (some centres unmarked) [Example 4-56]
HcL3 MED (symbol after Ex#) [2, 5]: 4-56^ (Examples with a carrot (^) have HcL3 MED values>1 and ≤3.3 μM)

Cc1nc(Cc2ccc(C[C@H]3OC(=O)[C@H](CC(C)C)N(C)C(=O)[C@@H](C)OC(=O)[C@H](CC(C)C)N(C)C(=O)[C@@H](Cc4ccccc4)OC(=O)[C@H](CC(C)C)N(C)C(=O)[C@@H](C)OC(=O)[C@H](CC(C)C)N(C)C3=O)cc2)cs1 [Example 4-66]
HcL3 MED (symbol after Ex#) [2, 5]: 4-66^ (Examples with a carrot (^) have HcL3 MED values>1 and ≤3.3 μM)

CC(C)C[C@H]1C(=O)O[C@H](Cc2ccc(C(O)c3sccc3Cl)cc2)C(=O)N(C)[C@@H](CC(C)C)C(=O)O[C@H](C)C(=O)N(C)[C@@H](CC(C)C)C(=O)O[C@H](Cc2ccccc2)C(=O)N(C)[C@@H](CC(C)C)C(=O)O[C@H](C)C(=O)N1C (some centres unmarked) [Example 4-77]
HcL3 MED (symbol after Ex#) [2, 5]: 4-77^ (Examples with a carrot (^) have HcL3 MED values>1 and ≤3.3 μM)

Cc1nc(Cc2ccc(C[C@H]3OC(=O)[C@H](CC(C)C)N(C)C(=O)[C@@H](C)OC(=O)[C@H](CC(C)C)N(C)C(=O)[C@@H](Cc4ccccc4)OC(=O)[C@H](CC(C)C)N(C)C(=O)[C@@H](C)OC(=O)[C@H](CC(C)C)N(C)C3=O)cc2)co1 [Example 4-83]
HcL3 MED (symbol after Ex#) [2, 5]: 4-83^ (Examples with a carrot (^) have HcL3 MED values>1 and ≤3.3 μM)

Cc1csc(Cc2ccc(C[C@H]3OC(=O)[C@H](CC(C)C)N(C)C(=O)[C@@H](C)OC(=O)[C@H](CC(C)C)N(C)C(=O)[C@@H](Cc4ccccc4)OC(=O)[C@H](CC(C)C)N(C)C(=O)[C@@H](C)OC(=O)[C@H](CC(C)C)N(C)C3=O)cc2)n1 [Example 4-90]
HcL3 MED (symbol after Ex#) [2, 5]: 4-90^ (Examples with a carrot (^) have HcL3 MED values>1 and ≤3.3 μM)

Cc1nc(C)c(Cc2ccc(C[C@H]3OC(=O)[C@H](CC(C)C)N(C)C(=O)[C@@H](C)OC(=O)[C@H](CC(C)C)N(C)C(=O)[C@@H](Cc4ccccc4)OC(=O)[C@H](CC(C)C)N(C)C(=O)[C@@H](C)OC(=O)[C@H](CC(C)C)N(C)C3=O)cc2)o1 [Example 4-91]
HcL3 MED (symbol after Ex#) [2, 5]: 4-91^ (Examples with a carrot (^) have HcL3 MED values>1 and ≤3.3 μM)

Cc1cnc(Cc2ccc(C[C@H]3OC(=O)[C@H](CC(C)C)N(C)C(=O)[C@@H](C)OC(=O)[C@H](CC(C)C)N(C)C(=O)[C@@H](Cc4ccccc4)OC(=O)[C@H](CC(C)C)N(C)C(=O)[C@@H](C)OC(=O)[C@H](CC(C)C)N(C)C3=O)cc2)s1 [Example 4-94]
HcL3 MED (symbol after Ex#) [2, 5]: 4-94^ (Examples with a carrot (^) have HcL3 MED values>1 and ≤3.3 μM)

Cc1ccc(Cc2ccc(C[C@H]3OC(=O)[C@H](CC(C)C)N(C)C(=O)[C@@H](C)OC(=O)[C@H](CC(C)C)N(C)C(=O)[C@@H](Cc4ccccc4)OC(=O)[C@H](CC(C)C)N(C)C(=O)[C@@H](C)OC(=O)[C@H](CC(C)C)N(C)C3=O)cc2)cn1 [Example 4-101]
HcL3 MED (symbol after Ex#) [2, 5]: 4-101^ (Examples with a carrot (^) have HcL3 MED values>1 and ≤3.3 μM)

CC(C)C[C@H]1C(=O)O[C@H](Cc2ccc(Cc3ncc(Cl)s3)cc2)C(=O)N(C)[C@@H](CC(C)C)C(=O)O[C@H](C)C(=O)N(C)[C@@H](CC(C)C)C(=O)O[C@H](Cc2ccccc2)C(=O)N(C)[C@@H](CC(C)C)C(=O)O[C@H](C)C(=O)N1C [Example 4-111]
HcL3 MED (symbol after Ex#) [2, 5]: 4-111^ (Examples with a carrot (^) have HcL3 MED values>1 and ≤3.3 μM)

Cc1nc(Cc2ccc(C[C@H]3OC(=O)[C@H](CC(C)C)N(C)C(=O)[C@@H](C)OC(=O)[C@H](CC(C)C)N(C)C(=O)[C@@H](Cc4ccccc4)OC(=O)[C@H](CC(C)C)N(C)C(=O)[C@@H](C)OC(=O)[C@H](CC(C)C)N(C)C3=O)cc2)sc1C [Example 4-115]
HcL3 MED (symbol after Ex#) [2, 5]: 4-115^ (Examples with a carrot (^) have HcL3 MED values>1 and ≤3.3 μM)

Cc1nnsc1Cc1ccc(C[C@H]2OC(=O)[C@H](CC(C)C)N(C)C(=O)[C@@H](C)OC(=O)[C@H](CC(C)C)N(C)C(=O)[C@@H](Cc3ccccc3)OC(=O)[C@H](CC(C)C)N(C)C(=O)[C@@H](C)OC(=O)[C@H](CC(C)C)N(C)C2=O)cc1 [Example 4-116]
HcL3 MED (symbol after Ex#) [2, 5]: 4-116^ (Examples with a carrot (^) have HcL3 MED values>1 and ≤3.3 μM)

CC(C)C[C@H]1C(=O)O[C@H](Cc2ccc(Cc3cnco3)cc2)C(=O)N(C)[C@@H](CC(C)C)C(=O)O[C@H](C)C(=O)N(C)[C@@H](CC(C)C)C(=O)O[C@H](Cc2ccccc2)C(=O)N(C)[C@@H](CC(C)C)C(=O)O[C@H](C)C(=O)N1C [Example 4-135]
HcL3 MED (symbol after Ex#) [2, 5]: 4-135^ (Examples with a carrot (^) have HcL3 MED values>1 and ≤3.3 μM)

— patent US11771738B2 (Zoetis Services LLC, priority 2018, dated 2023)
